Assay results from publication PMC2528936, “Snake Cathelicidin from Bungarus fasciatus Is a Potent Peptide Antibiotics” (PLoS ONE, 2008).
Like-named read-outs stand apart in the source and are kept apart here. Where no end group is shown, it is not given here.

Columns and labels:
[1] = system: Acinetobacter calcoaceticus; assay: microbe, parasite or virus in culture; conditions: liquid LB broth, no visible growth; mean of three independent experiments in duplicates; ND = no detectable activity
Procedure: (§1) Antimicrobial activities of cathelicidin-BF and cathelicidin-BF15 ([…]) were tested according to our previous methods [39]–[42]. […] The details were provided in the Materials and Methods S1.
(§2) Standard and clinically isolated microorganism strains were used for antimicrobial assays. Bacteria were first grown in LB (Luria-Bertani) broth to an OD600 nm of 0.8. A 10 µl aliquot of the bacteria was then taken and added to 8 ml of fresh LB broth with 0.7% agar and poured over a 90 mm Petri dish containing 25 ml of 1.5% agar in LB broth. After the top agar hardened, a 20 µl aliquot of the test sample filtered on a 0.22 µm Millipore filter was dropped onto the surface of the top agar and completely dried before being incubated overnight at 37 °C. If the sample examined had antimicrobial activity, a clear zone would be formed on the surface of the top agar representing inhibition of bacterial growth. Minimal inhibitory concentration (MIC) was determined in liquid LB medium by incubating the bacteria in LB broth with variable amounts of the sample tested. The MIC at which no visible growth occurred was recorded. In the assays of anti-fungi activity, for strains of Aspergillus terreus, A. niculans, and Chaetomium globosum, the fungal spore concentration was first counted under a microscope. The fungi with an initial concentration of 10^5 spores/ml were cultured with variable amounts of the sample tested in yeast extract-peptone-dextrose broth.

Bacillus cereus = assay: microbe, parasite or virus in culture; conditions: liquid LB broth, no visible growth; mean of three independent experiments in duplicates; ND = no detectable activity
Procedure: as §1, §2

Bacillus pumilus = assay: microbe, parasite or virus in culture; conditions: liquid LB broth, no visible growth; mean of three independent experiments in duplicates; ND = no detectable activity
Procedure: as §1, §2

Bacillus subtilis = assay: microbe, parasite or virus in culture; conditions: liquid LB broth, no visible growth; mean of three independent experiments in duplicates; ND = no detectable activity
Procedure: as §1, §2

[2] = system: Escherichia coliATCC25922; assay: microbe, parasite or virus in culture; conditions: standard strain; liquid LB broth, no visible growth; mean of three independent experiments in duplicates; ND = no detectable activity
Procedure: as §1, §2

[3] = system: Pseudomonas aeruginosa ATCC27853; assay: microbe, parasite or virus in culture; conditions: standard strain; liquid LB broth, no visible growth; mean of three independent experiments in duplicates; ND = no detectable activity
Procedure: as §1, §2

[4] = system: Staphylococcus aureus ATCC2592; assay: microbe, parasite or virus in culture; conditions: standard strain; liquid LB broth, no visible growth; mean of three independent experiments in duplicates; ND = no detectable activity
Procedure: as §1, §2

Aspergillus niculans = conditions: saprophytic fungus; 10^5 spores/ml, yeast extract-peptone-dextrose broth; mean of three independent experiments in duplicates; ND = no detectable activity
Procedure: as §1, §2

[5] = system: Aspergillus terreus GIM3.34; conditions: saprophytic fungus; 10^5 spores/ml, yeast extract-peptone-dextrose broth; mean of three independent experiments in duplicates; ND = no detectable activity
Procedure: as §1, §2

Chaetomium globosum = conditions: saprophytic fungus; 10^5 spores/ml, yeast extract-peptone-dextrose broth; mean of three independent experiments in duplicates; ND = no detectable activity
Procedure: as §1, §2

[6] = system: E. coli 08031017 (IS, DR); conditions: clinically isolated strain, drug resistance for ampicillin and benzylpenicillin; liquid LB broth; mean of three independent experiments in duplicates; ND = no detectable activity
Procedure: as §1, §2

[7] = system: E. coli 08032813 (IS, DR); conditions: clinically isolated strain, drug resistance for ampicillin and benzylpenicillin; liquid LB broth; mean of three independent experiments in duplicates; ND = no detectable activity
Procedure: as §1, §2

[8] = system: E. coli 08040722 (IS, DR); conditions: clinically isolated strain, drug resistance for ampicillin and benzylpenicillin; liquid LB broth; mean of three independent experiments in duplicates; ND = no detectable activity
Procedure: as §1, §2

[9] = system: E. coli 08040726 (IS, DR); conditions: clinically isolated strain, drug resistance for ampicillin and benzylpenicillin; liquid LB broth; mean of three independent experiments in duplicates; ND = no detectable activity
Procedure: as §1, §2

E. coli 08A852 (IS, DR) = conditions: clinically isolated strain, drug resistance for ampicillin and benzylpenicillin; liquid LB broth; mean of three independent experiments in duplicates; ND = no detectable activity
Procedure: as §1, §2

E. coli 08A866(IS, DR) = conditions: clinically isolated strain, drug resistance for ampicillin and benzylpenicillin; liquid LB broth; mean of three independent experiments in duplicates; ND = no detectable activity
Procedure: as §1, §2

E. coli = conditions: for most of E. coli (standard and clinically isolated strains)
Procedure: as §1, §2

[10] = system: Enterococcus faecium (IS, DR); conditions: clinically isolated strain, drug resistance for ampicillin and benzylpenicillin; liquid LB broth; mean of three independent experiments in duplicates; ND = no detectable activity
Procedure: as §1, §2

[11] = system: K. pneumoniae 08031012 (IS, DR); conditions: clinically isolated strain, drug resistance for ampicillin and benzylpenicillin; liquid LB broth; mean of three independent experiments in duplicates; ND = no detectable activity
Procedure: as §1, §2

[12] = system: K. pneumoniae 08040202 (IS, DR); conditions: clinically isolated strain, drug resistance for ampicillin and benzylpenicillin; liquid LB broth; mean of three independent experiments in duplicates; ND = no detectable activity
Procedure: as §1, §2

[13] = system: K. pneumoniae 08040724 (IS, DR); conditions: clinically isolated strain, drug resistance for ampicillin and benzylpenicillin; liquid LB broth; mean of three independent experiments in duplicates; ND = no detectable activity
Procedure: as §1, §2

[14] = system: Klebsiella pneumoniae (IS, DR); conditions: clinically isolated strain, drug resistance for ampicillin and benzylpenicillin; liquid LB broth; mean of three independent experiments in duplicates; ND = no detectable activity
Procedure: as §1, §2

P. aeruginosa (IS, DR) = conditions: clinically isolated strain, drug resistance for ampicillin and benzylpenicillin; liquid LB broth; mean of three independent experiments in duplicates; ND = no detectable activity
Procedure: as §1, §2

[15] = system: P.aeruginosa 08031014(IS, DR); conditions: clinically isolated strain, drug resistance for ampicillin and benzylpenicillin; liquid LB broth; mean of three independent experiments in duplicates; ND = no detectable activity
Procedure: as §1, §2

[16] = system: P.aeruginosa 08031205(IS, DR); conditions: clinically isolated strain, drug resistance for ampicillin and benzylpenicillin; liquid LB broth; mean of three independent experiments in duplicates; ND = no detectable activity
Procedure: as §1, §2

Pseudomonas luteola = conditions: liquid LB broth, no visible growth; mean of three independent experiments in duplicates; ND = no detectable activity
Procedure: as §1, §2

[17] = system: S. aureus 08031002 (IS, DR); conditions: clinically isolated strain, drug resistance for ampicillin and benzylpenicillin; liquid LB broth; mean of three independent experiments in duplicates; ND = no detectable activity
Procedure: as §1, §2

[18] = system: S. aureus 08031013 (IS, DR); conditions: clinically isolated strain, drug resistance for ampicillin and benzylpenicillin; liquid LB broth; mean of three independent experiments in duplicates; ND = no detectable activity
Procedure: as §1, §2

[19] = system: S. aureus 08032706 (IS, DR); conditions: clinically isolated strain, drug resistance for ampicillin and benzylpenicillin; liquid LB broth; mean of three independent experiments in duplicates; ND = no detectable activity
Procedure: as §1, §2

[20] = system: S. aureus 08032712 (IS, DR); conditions: clinically isolated strain, drug resistance for ampicillin and benzylpenicillin; liquid LB broth; mean of three independent experiments in duplicates; ND = no detectable activity
Procedure: as §1, §2

[21] = system: S. aureus 08032810 (IS, DR); conditions: clinically isolated strain, drug resistance for ampicillin and benzylpenicillin; liquid LB broth; mean of three independent experiments in duplicates; ND = no detectable activity
Procedure: as §1, §2

[22] = system: S. aureus 08A865 (IS, DR); conditions: clinically isolated strain, drug resistance for ampicillin and benzylpenicillin; liquid LB broth; mean of three independent experiments in duplicates; ND = no detectable activity
Procedure: as §1, §2

[23] = system: S. aureus 08A875 (IS, DR); conditions: clinically isolated strain, drug resistance for ampicillin and benzylpenicillin; liquid LB broth; mean of three independent experiments in duplicates; ND = no detectable activity
Procedure: as §1, §2

[24] = system: Sacharibacillus kuerlensis; conditions: liquid LB broth, no visible growth; mean of three independent experiments in duplicates; ND = no detectable activity
Procedure: as §1, §2

Serratia marcescens MA = conditions: liquid LB broth, no visible growth; mean of three independent experiments in duplicates; ND = no detectable activity
Procedure: as §1, §2

Serratia marcescens SA = conditions: liquid LB broth, no visible growth; mean of three independent experiments in duplicates; ND = no detectable activity
Procedure: as §1, §2

[25] = system: Sphingobacterium siyangense; conditions: liquid LB broth, no visible growth; mean of three independent experiments in duplicates; ND = no detectable activity
Procedure: as §1, §2

S. aureus ATCC25923 = assay: MIC determination; format: cell-based, Staphylococcus aureus; conditions: liquid LB broth, no visible growth; mean of three independent experiments in duplicates; ND = no detectable activity
[26] = system: Salmonella typhi (IS, DR); assay: MIC determination; format: cell-based; conditions: clinically isolated strain, drug resistance for ampicillin and benzylpenicillin; liquid LB broth; mean of three independent experiments in duplicates; ND = no detectable activity
[27] = system: human liver tumor cell (HepG2); conditions: up to 400 µg/ml, data not shown
Procedure: (§3) Cytotoxicity and serum stability were measured according the methods described by Mygind et al. The details were provided in the Materials and Methods S1.
(§4) Hemolysis assays were undertaken using human red blood cells in liquid medium as our previous reoprts. Serial dilutions of the peptide were used, and after incubation at 37 °C for 30 min, the cells were centrifuged and the absorbance in the supernatant was measured at 540 nm. Maximum hemolysis was determined by adding 1% Triton X-100 to a sample of cells. Cytotoxicity was measured according the methods described by Mygind et al, using mouse macrophage (RAW264.7) and tumor cell (HepG2). Serum stability was checked by incubating 100 µg/ml cathelicidin-BF with 90% fresh normal human serum at 37 °C for 0, 1, 2, 3, 6, and 24 hours. Residual antimicrobial activities were measured by performing radial diffusion assays with E. coli 08A866 as described by Mygind et al.

[28] = system: mouse macrophage (RAW264.7); conditions: up to 400 µg/ml, data not shown
Procedure: as §3, §4

[29] = Serum stability, residual antimicrobial activity; format: in vitro ADME; conditions: 100 µg/ml peptide, 90% fresh normal human serum, 37°C, 0-24 hours; residual activity against E. coli 08A866 by radial diffusion assay
Procedure: For cathelicidin-BF, antimicrobial activities against E. coli 08A866 could not be detected after 3 h-incubation, while cathelicidin-BF15 could keep its antimicrobial activity up to 10 h in 90% fresh normal human serum.

With “KFFRKLKKSVKKRAKEFFKKPRVIGVSIPF [cathelicidin-BF]” the MIC [1] was 2.3 µg/mL, the MIC (Bacillus cereus) was 1.2 µg/mL and the MIC (Bacillus pumilus) was 9.4 µg/mL. For the same sequence, the MIC (Bacillus subtilis) was 9.4 µg/mL, the MIC [2] was 2.3 µg/mL and the MIC [3] was 1.2 µg/mL. For the same sequence, the MIC [4] was 4.7 µg/mL, the MIC (Aspergillus niculans) was 18.7 µg/mL and the MIC [5] was 18.7 µg/mL. For the same sequence, the MIC (Chaetomium globosum) was 37.5 µg/mL, the MIC [6] was 2.3 µg/mL and the MIC [7] was 2.3 µg/mL. For the same sequence, the MIC [8] was 0.6 µg/mL, the MIC [9] was 0.6 µg/mL and the MIC (E. coli 08A852 (IS, DR)) was 1.2 µg/mL. For the same sequence, the MIC (E. coli 08A866(IS, DR)) was 0.6 µg/mL, the MIC (E. coli) was “lower than 2.3 µg/ml” and the MIC [10] was 150 µg/mL. The MIC [11] was 9.4 µg/mL, the MIC [12] was 0.6 µg/mL and the MIC [13] was 0.3 µg/mL. For the same sequence, the MIC [14] was 4.7 µg/mL, the MIC (P. aeruginosa (IS, DR)) was 2.3 µg/mL and the MIC [15] was 18.7 µg/mL. The MIC [16] was 9.4 µg/mL, the MIC (Pseudomonas luteola) was 1.2 µg/mL and the MIC [17] was >100 µg/mL. The MIC [18] was >100 µg/mL, the MIC [19] was >100 µg/mL and the MIC [20] was >100 µg/mL. For the same sequence, the MIC [21] was >100 µg/mL, the MIC [22] was >400 µg/mL and the MIC [23] was 75 µg/mL. For the same sequence, the MIC [24] was 4.7 µg/mL, the MIC (Serratia marcescens MA) was >400 µg/mL and the MIC (Serratia marcescens SA) was >400 µg/mL. For the same sequence, the MIC [25] was 9.4 µg/mL, the MIC (S. aureus ATCC25923) was >400 µg/mL and the MIC [26] was 1.2 µg/mL. The cytotoxicity [27] was “neither cytotoxic”, the cytotoxicity ([27]; listed as Cathelicidin-BF) was “No hemolytic and cytotoxic activity” and the cytotoxicity [28] was “neither cytotoxic”. The cytotoxicity ([28]; listed as Cathelicidin-BF) was “No hemolytic and cytotoxic activity” and the “incubation time after which antimicrobial activities could not be detected” value [29] was 3 h.
